# Literature values as cited in publication PMC3384292 (Journal of the American Chemical Society, 2012).
# Biological target: thrombin (Homo sapiens, UniProt P00734)
substance,measurement,value
hirudin,inhibition constant to thrombin,femtomolar
